Test results published in US9119886B2, “Immunoconjugates for the treatment of tumours” (MolMed SpA, priority 2002, dated 2015).

Assays:
B16F1 cells = test: 48 hour in vitro cytotoxicity assay on cultured B16F1 cells; format: cell-based, mouse
Text: To assess whether the synergism depends directly on cytotoxicity against tumor cells we measured the effect of each compound, alone or in combination, on cultured B16F1 cells.

B16F1 melanoma = test: anti-tumor activity (tumor growth) in B16F1 melanoma-bearing mice; format: in vivo, C57BL/6 mice
Protocol: C57BL/6 mice (Charles River Laboratories, Calco, Italy) weighing 16-18 g were challenged with subcutaneous injection in the left flank of 5×10^4 RMA-T or B16F1 living cells; 4-12 days later, the mice were treated with TNF or NGR-TNF solutions (100 μl) followed 2 hours later by administration of melphalan or doxorubicin solution (100 μl). Unless specified, all drugs were administered intraperitoneally (i.p.). All drugs were diluted with 0.9% sodium chloride, containing 100 μg/ml endotoxin-free human serum albumin (Farma-Biagini, Lucca, Italy), except for doxorubicin, which was diluted with 0.9% sodium chloride alone. Tumor growth was monitored daily by measuring the tumors with calipers as previously described (20). Animals were sacrificed before the tumors reached 1.0-1.5 cm in diameter. Tumor sizes are shown as mean±SE (5 animals/group).
We then investigated whether targeted delivery of low doses of NGR-mTNF to tumor vessles could enhance the anti-tumor activity of chemotherapeutic drugs.

RMA-T lymphoma = test: anti-tumor activity (tumor growth) in RMA-T lymphoma-bearing mice; format: in vivo, C57BL/6 mice; conditions: RMA-T tumors, treatment at day 10, picogram doses

| Molecule | killing of cultured cells (B16F1 cells) | effect on tumor growth, single agent (B16F1 melanoma; melphalan 90 μg, mTNF or NGR-mTNF 0.1 ng i.p.) | enhancement of therapeutic effect of cisplatinum (RMA-T lymphoma) | dose sufficient to enhance the anti-tumor activity of melphalan and doxorubicin (B16F1 melanoma; systemic administration to mice) |
| --- | --- | --- | --- | --- |
| N[C@@H](Cc1ccc(N(CCCl)CCCl)cc1)C(=O)O [Melphalan] | Neither melphalan or NGR-mTNF, alone or in combination, killed these cells | unable to effect the growth of tumors |  |  |
| NGR-TNF: TNF fused with the C-terminus of CNGRCG; human or murine form not specified at the place (Example 15 used NGR-mTNF) (protein) CNGRCGMSTESMIRDVELAEEALPQKMGGFQNSRRCLCLSLFSFLLVAGATTLFCLLNFGVIGPQRDEKFPNGLPLISSMAQTLTLRSSSQNSSDKPVAHVVANHQVEEQLEWLSQRANALLANGMDLKDNQLVVPADGLYLVYSQVLFKGQGCPDYVLLTHTVSRFAISYQEKVNLLSAVKSPCPKDTPEGAELKPWYEPIYLGGVFQLEKGDQLSAEVNLPKYLDFAESGQVYFGVIAL |  |  | sufficient to enhance the therapeutic effect of cisplatinum | 0.003 to 0.005 µg/kg |
